According to ChEMBL document CHEMBL6120994, “Unravelling the potential of natural chelating agents in the control of Staphylococcus aureus and Pseudomonas aeruginosa biofilms” (Eur J Med Chem, 2025):
Activity calls are given as the source filed them. No cut-off for these calls is given here.

Experiments:
Pseudomonas aeruginosa [1] = assay: Antibiotic adjuvant activity against Pseudomonas aeruginosa ATCC 10145 assessed as potentiation of ciprofloxacin-induced antibacterial activity by measuring fractional inhibitory concentration index (MIC) at 15.6 ug/ml measured after 24 hrs by checkerboard assay; assay type: functional; settings: dose 15.6 µg/ml
Staphylococcus aureus [2] = assay: Inhibition of virulence production in Staphylococcus aureus CECT 976 biofilms assessed as diameter of protease halo at 1XMTC measured after 72 hrs (reference value: 12 to 13 mm); assay type: functional
Staphylococcus aureus [3] = assay: Antibiofilm activity against preestablished 24 hr-old Staphylococcus aureus CECT 976 assessed as biomass removal at 1000 to 10000 ug/ml measured after 24 hrs by crystal violet staining method; assay type: functional; settings: dose 1000-10000 µg/ml, at 1000 to 10000 µg/mL
Staphylococcus aureus [4] = assay: Antibiofilm activity against preestablished 24 hr-old Staphylococcus aureus CECT 976 assessed as reduction in metabolic activity of biofilm cells at 10XMTC by resazurin staining based fluorescence analysis; assay type: functional
Staphylococcus aureus [5] = assay: Inhibition of virulence production in Staphylococcus aureus CECT 976 biofilms assessed as diameter of protease halo at 1/2XMTC measured after 72 hrs in presence of 1/4XMIC tobramycin (reference value: 11.5 to 12.3 mm); assay type: functional
Staphylococcus aureus [6] = assay: Inhibition of virulence production in pre-established 24 hr-old Staphylococcus aureus CECT 976 biofilms assessed as diameter of siderophores halo at 10XMTC measured after 48 hrs in presence of 1XMIC tobramycin (reference value: 11.3 +/-0.5 mm); assay type: functional
Staphylococcus aureus [7] = assay: Inhibition of virulence production in Staphylococcus aureus CECT 976 biofilms assessed as diameter of protease halo at 1/2XMTC measured after 72 hrs in presence of 1/8XMIC tobramycin (reference value: 12.5 to 13.3 mm); assay type: functional
[8] = Metal chelating activity at iron(III) in chrome azurol sulphonate solution incubated for 30 mins by spectrophotometric analysis; settings: dose 6.25-1000 µg/ml
Staphylococcus aureus [9] = assay: Inhibition of virulence production in pre-established 24 hr-old Staphylococcus aureus CECT 976 biofilms assessed as diameter of siderophores halo at 1XMTC measured after 48 hrs (reference value: 11.5 to 11.8 mm); assay type: functional
Staphylococcus aureus [10] = assay: Antibiotic adjuvant activity against preestablished 24 hr-old Staphylococcus aureus CECT 976 assessed as potentiation of tobramycin-induced antibiofilm activity by measuring reduction of metabolic activity of biofilm cells at 10000 ug/ml in presence of 1/4XMIC tobramycin by resazurin staining based fluorescence analysis (reference value: 37%); assay type: functional
Staphylococcus aureus [11] = assay: Antibacterial activity against Staphylococcus aureus CECT 976 assessed as inhibition of bacterial growth by measuring inhibition zone diameter at 1000 ug/ml incubated for 24 hrs in presence of gentamicin by disc diffusion method (reference value: 12 +/- 1.63 mm); assay type: functional; settings: read-out: DIZ
Pseudomonas aeruginosa [12] = assay: Antibacterial activity against Pseudomonas aeruginosa ATCC 10145 assessed as inhibition of bacterial growth by measuring inhibition zone diameter at 100 ug/ml incubated for 24 hrs in presence of tetracycline by disc diffusion method (reference value: 2 mm); assay type: functional; settings: read-out: DIZ
Staphylococcus aureus [13] = assay: Antibiotic adjuvant activity against Staphylococcus aureus CECT 976 assessed as potentiation of tobramycin-induced antibacterial activity by measuring tobramycin MIC at 62.5 ug/ml measured after 24 hrs by checkerboard assay (reference value: 4 ug/ml); assay type: functional; settings: dose 62.5 µg/ml
Pseudomonas aeruginosa [14] = assay: Antibiotic adjuvant activity against Pseudomonas aeruginosa ATCC 10145 assessed as potentiation of ciprofloxacin-induced antibiofilm activity by measuring reduction in biofilm cells culturability at 500 ug/ml measured after 24 hrs in presence of ciprofloxacin by visual counting method; assay type: functional, organism-based; settings: dose 500.0 µg/ml
Staphylococcus aureus [15] = assay: Inhibition of virulence production in Staphylococcus aureus CECT 976 biofilms assessed as diameter of siderophores halo at 1/2XMTC measured after 48 hrs in presence of 1/2XMIC tobramycin (reference value: 10.5 +/-0.6 mm); assay type: functional
Cell membrane [16] = assay: Disruption of membrane integrity in pre-established 24 hr-old Staphylococcus aureus CECT 976 biofilm at 10XMTC measured after 24 hrs by PI staining based flow cytomtery; assay type: subcellular
Staphylococcus aureus [17] = assay: Inhibition of virulence production in Staphylococcus aureus CECT 976 biofilms assessed as diameter of gelatinases halo at 1/2XMTC measured after 48 hrs (reference value: 10.8 to 11.5 mm); assay type: functional
Staphylococcus aureus [18] = assay: Antibacterial activity against Staphylococcus aureus CECT 976 assessed as inhibition of bacterial growth by measuring inhibition zone diameter at 1000 ug/ml incubated for 24 hrs in presence of ciprofloxacin by disc diffusion method (reference value: 29.25 +/- 0.96 mm); assay type: functional; settings: read-out: DIZ
Staphylococcus aureus [19] = assay: Inhibition of virulence production in Staphylococcus aureus CECT 976 biofilms assessed as diameter of gelatinases halo at 1/2XMTC measured after 48 hrs in presence of 1/8XMIC tobramycin (reference value: 11.3 to 12 mm); assay type: functional
Staphylococcus aureus [20] = assay: Inhibition of virulence production in pre-established 24 hr-old Staphylococcus aureus CECT 976 biofilms assessed as diameter of protease halo at 10XMTC measured after 72 hrs in presence of 1/2XMIC tobramycin (reference value: 11.8 to 12.3 mm); assay type: functional
Staphylococcus aureus [21] = assay: Inhibition of virulence production in pre-established 24 hr-old Staphylococcus aureus CECT 976 biofilms assessed as diameter of protease halo at 10XMTC measured after 72 hrs in presence of 1/4XMIC tobramycin (reference value: 12.5 to 12.8 mm); assay type: functional
Staphylococcus aureus [22] = assay: Antibacterial activity against Staphylococcus aureus CECT 976 assessed as inhibition of bacterial growth by measuring inhibition zone diameter at 1000 ug/ml incubated for 24 hrs in presence of methicillin by disc diffusion method (reference value: 19.5 +/- 1.29 mm); assay type: functional; settings: read-out: DIZ
Staphylococcus aureus [23] = assay: Inhibition of virulence production in pre-established 24 hr-old Staphylococcus aureus CECT 976 biofilms assessed as diameter of lipases halo at 10XMTC measured after 48 hrs (reference value: 11.8 to 12 mm); assay type: functional
Staphylococcus aureus [24] = assay: Inhibition of virulence production in Staphylococcus aureus CECT 976 biofilms assessed as diameter of siderophores halo at 1XMTC measured after 48 hrs (reference value: 12 mm); assay type: functional
Staphylococcus aureus [25] = assay: Inhibition of virulence production in Staphylococcus aureus CECT 976 biofilms assessed as diameter of siderophores halo at 1/2XMTC measured after 48 hrs in presence of 1/4XMIC tobramycin (reference value: 10.5 +/-0.6 mm); assay type: functional
Cell membrane [26] = assay: Disruption of membrane integrity in pre-established 24 hr-old Staphylococcus aureus CECT 976 assessed as PI uptake at 10000 ug/ml measured after 24 hrs in presence of 1/4XMIC to MIC tobramycin by PI staining based flow cytometry; assay type: subcellular; settings: dose 10000.0 µg/ml
Pseudomonas aeruginosa [27] = assay: Antibiotic adjuvant activity against Pseudomonas aeruginosa ATCC 10145 assessed as potentiation of ciprofloxacin-induced antibacterial activity by measuring ciprofloxacin MIC at 15.6 ug/ml measured after 24 hrs by checkerboard assay (reference value: […] ug/ml); assay type: functional; settings: dose 15.6 µg/ml
Staphylococcus aureus [28] = assay: Antibiofilm activity against Staphylococcus aureus CECT 976 assessed as reduction in metabolic activity of biofilm cells at 500 to 1000 ug/ml by resazurin staining based fluorescence analysis; assay type: functional; settings: dose 500-1000 µg/ml; at 500 to 1000 µg/mL

Compound	fractional inhibitory concentration index (FICI) (Pseudomonas aeruginosa [1])	Activity (Staphylococcus aureus [2])	inhibition (INH) (Staphylococcus aureus [3])	inhibition (INH) (Staphylococcus aureus [4])	Activity (Staphylococcus aureus [5])	Activity (Staphylococcus aureus [6])	Activity (Staphylococcus aureus [7])	Activity [8]	Activity (Staphylococcus aureus [9])	inhibition at 10000 µg/mL (Staphylococcus aureus [10])	zone of inhibition at 1000 µg/mL (Staphylococcus aureus [11])	zone of inhibition at 100 µg/mL (Pseudomonas aeruginosa [12])	MIC (Staphylococcus aureus [13])	Activity (Pseudomonas aeruginosa [14])	Activity (Staphylococcus aureus [15])	Activity (Cell membrane [16])	Activity (Staphylococcus aureus [17])	zone of inhibition at 1000 µg/mL (Staphylococcus aureus [18])	Activity (Staphylococcus aureus [19])	Activity (Staphylococcus aureus [20])	also measured
O=c1cc(CO)occ1O [KOJIC ACID]	0.5	0 mm	15%	80%	0 mm	10 mm	0 mm	Dose-dependent-effect	10 mm	80%	9.5 mm	5 mm	1 µg/mL	inactive	9.75 mm	90%	0 mm	30.8 mm	0 mm	0 mm	Activity (Staphylococcus aureus [21]): 0 mm; zone of inhibition at 1000 µg/mL (Staphylococcus aureus [22]): 16 mm; Activity (Staphylococcus aureus [23]): 2.5 mm; Activity (Staphylococcus aureus [24]): 10 mm; Activity (Staphylococcus aureus [25]): 9.5 mm; Activity (Cell membrane [26]): 50%; MIC (Pseudomonas aeruginosa [27]): 16 µg/mL; inhibition (INH) (Staphylococcus aureus [28]): 40%
Cc1occc(=O)c1O [MALTOL]	0.5	0 mm	15%	80%	0 mm	10.3 mm	0 mm	Dose-dependent-effect	10 mm	80%	17.5 mm	3.5 mm	1 µg/mL	inactive	9.5 mm	90%	0 mm	33 mm	0 mm	0 mm	Activity (Staphylococcus aureus [21]): 0 mm; zone of inhibition at 1000 µg/mL (Staphylococcus aureus [22]): 15.5 mm; Activity (Staphylococcus aureus [23]): 2.5 mm; Activity (Staphylococcus aureus [24]): 10 mm; Activity (Staphylococcus aureus [25]): 9.5 mm; Activity (Cell membrane [26]): 50%; MIC (Pseudomonas aeruginosa [27]): 16 µg/mL; inhibition (INH) (Staphylococcus aureus [28]): 40%
